Residues, ends and D or L forms follow the SMILES beside them.
Tests used:
[1] = tested on: neuronal N2A cells; assay: Example 21: intracellular ROS and cell survival after t-BHP; assay type: cell-based; conditions: t-BHP 0.5 or 1 mM, 40 min; then 4 hours
Experimental: Cells will be washed twice and incubated in medium alone or medium containing varying concentrations of peptide conjugates, aromatic-cationic peptides or SPN10(s) with or without aromatic-cationic peptides for 4 hours. Intracellular ROS will be measured using carboxy-H2DCFDA (Molecular Probes, Portland, OR, U.S.A.). Cell death will be measured using an MTS cell proliferation assay (Promega, Madison, WI).

[2] = tested on: Hairless mice; assay: Example 50: sunburn by excessive UV radiation; assay type: in vivo, mouse; conditions: intravenously twice per day for seven days
Source text: Hairless mice, with skin characteristics similar to humans, will be exposed to excessive UV radiation over the course of a week. […] Parameters measured will include wound contraction, re-epithelialization distance, cellularity, and collagen organization. Ki67 proliferation antigen will be assessed, as well as TUNEL and caspase-3 activation. Blood flow will be measured by […] mapping.

[3] = tested on: Isolated guinea pig hearts; assay: Example 6: isolated hearts, 18 hours cold ischemic storage and warm reperfusion
Experimental: Isolated guinea pig hearts will be perfused with St. Thomas solution alone or St. Thomas solution containing peptide conjugates (1-100 nM), aromatic-cationic peptides (e.g., an equivalent molar dose of aromatic-cationic peptide based on the concentration of the aromatic-cationic peptide administered in the peptide conjugate treatment group), SPN10(s) (e.g., an equivalent molar dose of SPN10 based on the concentration of SPN10 administered in the peptide conjugate treatment group), or SPN10(s) in combination with aromatic-cationic peptides (e.g., an equivalent molar dose of SPN10 based on the concentration of SPN10 administered in the peptide conjugate treatment group and an equivalent molar dose of aromatic-cationic peptide based on the concentration of aromatic-cationic peptide administered in the peptide conjugate treatment group) for 3 minutes and then stored in the same solution at 4° C. for 18 hours. After ischemic storage, hearts will be re-perfused with 34° C. Krebs-Henseleit solution for 90 min. Hearts freshly isolated from guinea pigs will be used as controls.
The hearts will be fixed in paraffin and sliced for immunostaining with an anti-CD36 rabbit polyclonal antibody. It is anticipated that the sections from a representative heart stored in St. Thomas solution for 18 hours at 4° C. will show increased CD36 staining compared to freshly isolated controls.
It is also anticipated that there will be a decrease in lipid peroxidation in the hearts treated with peptide conjugates, aromatic-cationic peptides, or SPN10(s) (with or without aromatic-cationic peptides). […]

N=C(N)NCCC[C@H](NC(=O)[C@@H](N)Cc1c[nH]c2ccccc12)C(=O)N[C@@H](Cc1c[nH]c2ccccc12)C(=O)N[C@@H](CCCCN)C(N)=O [SPN10, H-L-Trp-L-Arg-L-Trp-L-Lys-NH2] (H-WRWK-NH2)
cell survival (MTS) [1]: increase cell survival
intracellular ROS (carboxy-H2DCFDA) [1]: dose-dependently reduce intracellular ROS
wound healing and progression of sunburn injuries [2]: accelerate wound healing and attenuate the progression of sunburn injuries
coronary blood flow after cold ischemic storage and warm reperfusion [3]: significant improvement of coronary blood flow
HNE staining in stored hearts ([3]; 18 hours cold ischemia, 90 minutes reperfusion): reduced
CD36 staining in stored hearts ([3]; St. Thomas solution, 18 hours, 4° C.): significantly reduced
